Where “and” joins values, the source holds several entries; their conditions need not be identical. Equal values may be shown once. Read-outs that look alike come from different tables or passages of the source.
Key:
C1s = molecular target: T1, C1s (Homo sapiens, UniProt P09871); assay: Anti-C1 esterase activity, C1s (hydrolysis of ATEE); type: biochemical
T1 sequence (P09871 438-688 limits assumed): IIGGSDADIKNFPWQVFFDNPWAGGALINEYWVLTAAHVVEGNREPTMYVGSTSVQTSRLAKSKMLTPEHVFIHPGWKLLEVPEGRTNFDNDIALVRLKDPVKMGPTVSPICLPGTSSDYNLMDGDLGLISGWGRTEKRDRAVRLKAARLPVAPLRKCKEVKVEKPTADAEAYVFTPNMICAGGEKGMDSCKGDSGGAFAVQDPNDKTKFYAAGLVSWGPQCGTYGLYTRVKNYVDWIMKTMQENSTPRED
T1 sequence (P09871 16-437 partner limits assumed): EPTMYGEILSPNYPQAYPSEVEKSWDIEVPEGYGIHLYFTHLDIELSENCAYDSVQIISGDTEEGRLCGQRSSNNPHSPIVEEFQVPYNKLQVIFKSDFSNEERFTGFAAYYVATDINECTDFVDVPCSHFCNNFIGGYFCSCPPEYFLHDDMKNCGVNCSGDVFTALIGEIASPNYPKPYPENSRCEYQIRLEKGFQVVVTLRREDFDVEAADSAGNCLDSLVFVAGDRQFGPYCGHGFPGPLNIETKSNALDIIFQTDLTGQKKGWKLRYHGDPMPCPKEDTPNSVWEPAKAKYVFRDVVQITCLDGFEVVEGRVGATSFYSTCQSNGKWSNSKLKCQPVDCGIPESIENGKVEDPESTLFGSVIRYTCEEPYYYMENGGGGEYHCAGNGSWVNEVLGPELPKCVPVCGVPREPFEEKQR
Description: The anti-C1 esterase (C1r, C1s) activity was determined according to the method of Okamura et al. [K. Okamura, M. Muramatsu and B. Fujii, Biochem. Biophys. Acta, 295, 252-257 (1973)]. The inhibition of complement mediated hemolysis was determined according to the method of Baker et al. [B. R. Baker and E. H. Erickson, J. Med. Chem., 12, 408-414 (1969)]. The figures in Table 2 have the following meanings:
C1s: Molar concentration of the test compound which inhibits 50% of the ability of C1s to hydrolyse ATEE (acetyltyrosin ethyl ester).

complement [1] = assay: Inhibition of complement mediated hemolysis; type: cell-based; conditions: read-out: Inhibition of complement mediated hemolysis (%)
Description: The complement mediated hemolysis is widely used as a means to determine the titration of complement. The principle of this method is based on the fact that hemolysis is caused by the activation of complement, when the latter is added to a complex (immune complex) of erythrocytes and the autibody thereof. The degree of hemolysis varies in proportion to the amount of complement added. Therefore, when a known amount of complement admixed with a C1 esterase inhibitor is used, the hemolysis must be suppressed in proportion to the inhibitory activity.
The anti-C1 esterase (C1r, C1s) activity was determined according to the method of Okamura et al. [K. Okamura, M. Muramatsu and B. Fujii, Biochem. Biophys. […] The inhibition of complement mediated hemolysis was determined according to the method of Baker et al. [B. R. Baker and E. H. Erickson, J. Med. Chem., 12, 408-414 (1969)].

Thrombin = Thrombin (Bos taurus, UniProt P00735); assay: Anti-thrombin activity (hydrolysis of TAME); type: biochemical
Description: (§1) The anti-trypsin, anti-plasmin, anti-kallikrein and anti-thrombin activities were determined according to the method of Muramatsu et al. [M. Muramatsu, T. Onishi, S. Makino, Y. Hayashi and S. Fujii, J. of Biochem., 58, 214 (1965)]. The data summarized in Table 1 are expressed in terms of molar concentration (id50) of the test compound which inhibits 50% of the activity of each enzyme to hydrolyze TAME (tosylarginine methyl ester). The compound No. corresponds to the compound number shown in Examples.

[2] = Toxicity, median lethal dose (LD50); conditions: in vivo
Plasmin = Plasmin (Homo sapiens, UniProt P00747); assay: Anti-plasmin activity (hydrolysis of TAME); type: biochemical; conditions: molar concentration inhibiting 50% of TAME hydrolysis; read-out: id50, Plasmin
Plasmin, sequence (P00747 581-810 limits assumed): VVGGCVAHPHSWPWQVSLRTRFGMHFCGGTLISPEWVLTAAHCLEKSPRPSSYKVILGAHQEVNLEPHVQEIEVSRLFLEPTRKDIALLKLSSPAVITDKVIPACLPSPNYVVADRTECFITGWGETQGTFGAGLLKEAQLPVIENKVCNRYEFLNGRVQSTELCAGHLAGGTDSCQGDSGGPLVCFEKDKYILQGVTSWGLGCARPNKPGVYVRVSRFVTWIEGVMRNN
Plasmin, sequence (P00747 97-580 partner limits assumed): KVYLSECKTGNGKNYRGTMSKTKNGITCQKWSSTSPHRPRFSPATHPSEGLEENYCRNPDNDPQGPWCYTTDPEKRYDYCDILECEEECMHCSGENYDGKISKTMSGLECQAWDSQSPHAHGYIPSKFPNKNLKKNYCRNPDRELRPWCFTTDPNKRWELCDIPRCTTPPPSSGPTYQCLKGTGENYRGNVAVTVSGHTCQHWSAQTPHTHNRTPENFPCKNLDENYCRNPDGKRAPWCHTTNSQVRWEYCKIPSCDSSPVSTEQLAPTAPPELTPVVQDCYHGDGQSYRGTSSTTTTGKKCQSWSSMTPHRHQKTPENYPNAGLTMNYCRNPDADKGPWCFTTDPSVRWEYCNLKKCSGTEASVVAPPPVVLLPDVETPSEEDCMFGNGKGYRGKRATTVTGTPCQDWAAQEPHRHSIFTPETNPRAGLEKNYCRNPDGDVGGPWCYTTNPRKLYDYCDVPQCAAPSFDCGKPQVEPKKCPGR
Description: as §1

Forssman shock = Forssman shock (survival time after hemolysin); type: in vivo, guinea pig (male Hartlay); conditions: for time elapsed until death, average: control average 361 sec.
Excerpt: Quite different from other animals, guinea pig has on the surface of its organs a specific antigen called Forssman antigen which specifically reacts with the antibody of sheep erythrocyte. Forssman shock is based on the above principle and is a shock caused by the administration of antibody of sheep erythrocyte to a guinea pig. The Forssman shock was investigated in detail by many researches and it was definitely shown that this shock is a model case where the complement plays the principal part and that the shock is associated with a classical pathway in which the complement system is activated progressively starting from C1. Since the participation of complement in autoimmune diseases has been established, the Forssman shock can be said to be a useful means for testing a drug for autoimmune diseases. A drug effective for the treatment of Forssman shock is useful as a drug of autoimmune diseases. [Anti-trypsin, anti-plasmin, anti-kallikrein and anti-thrombin activities]
The experiment was performed according to the method of I. G. Offerness et al. [Biochem. Pharmacol., 27 (14), 1873-1878 (1978)]. Male Hartlay guinea pig of about 300 g in body weight was used. Each guinea pig of the control group was administered intravenously with 0.5 ml (minimum dose to cause the shock) of hemolysin (commercial hemolysin, 5,000 U as assayed by the method of Ogata) and the time elapsed until death was observed. For the test group, each guinea pig was administered intravenously with the test compound 5 minutes before the administration of hemolysin and the time (second) elapsed until death was observed.

C1r = molecular target: T2, C1r (Homo sapiens, UniProt P00736); assay: Anti-C1 esterase activity, C1r (hydrolysis of AAME); type: biochemical; conditions: molar concentration inhibiting 50% of AAME hydrolysis; read-out: Anti-C1 activity, C1r id50
T2 sequence (P00736 464-705 limits assumed): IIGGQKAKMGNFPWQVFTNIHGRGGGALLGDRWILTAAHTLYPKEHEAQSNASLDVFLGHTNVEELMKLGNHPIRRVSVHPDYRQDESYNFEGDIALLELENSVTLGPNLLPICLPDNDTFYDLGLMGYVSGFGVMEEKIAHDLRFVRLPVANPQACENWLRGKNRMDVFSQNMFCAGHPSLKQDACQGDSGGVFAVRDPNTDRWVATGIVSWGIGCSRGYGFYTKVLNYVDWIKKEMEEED
T2 sequence (P00736 18-463 partner limits assumed): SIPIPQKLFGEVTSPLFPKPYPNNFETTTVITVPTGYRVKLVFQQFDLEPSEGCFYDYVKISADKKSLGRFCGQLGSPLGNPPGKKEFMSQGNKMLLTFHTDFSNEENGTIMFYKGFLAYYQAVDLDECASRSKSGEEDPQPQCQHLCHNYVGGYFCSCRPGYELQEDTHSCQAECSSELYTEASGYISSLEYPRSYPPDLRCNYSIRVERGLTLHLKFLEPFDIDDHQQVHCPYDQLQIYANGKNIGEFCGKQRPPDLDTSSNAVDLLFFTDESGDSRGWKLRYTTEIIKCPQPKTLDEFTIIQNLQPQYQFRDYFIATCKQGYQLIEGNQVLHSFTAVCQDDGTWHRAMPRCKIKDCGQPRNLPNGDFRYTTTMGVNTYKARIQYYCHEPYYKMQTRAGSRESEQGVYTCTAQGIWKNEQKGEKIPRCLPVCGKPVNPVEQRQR
Description: The anti-C1 esterase (C1r, C1s) activity was determined according to the method of Okamura et al. [K. Okamura, M. Muramatsu and B. Fujii, Biochem. Biophys. […] The figures in Table 2 have the following meanings:
C1r: Molar concentration of the test compound which inhibits 50% of the ability of C1r to hydrolyse AAME (acetylarginin methyl ester) (id50).

Trypsin = molecular target: T3, Trypsin (Bos taurus, UniProt P00760); assay: Anti-trypsin activity (hydrolysis of TAME); type: biochemical; conditions: molar concentration inhibiting 50% of TAME hydrolysis; read-out: id50, Trypsin
T3 sequence (P00760 24-246): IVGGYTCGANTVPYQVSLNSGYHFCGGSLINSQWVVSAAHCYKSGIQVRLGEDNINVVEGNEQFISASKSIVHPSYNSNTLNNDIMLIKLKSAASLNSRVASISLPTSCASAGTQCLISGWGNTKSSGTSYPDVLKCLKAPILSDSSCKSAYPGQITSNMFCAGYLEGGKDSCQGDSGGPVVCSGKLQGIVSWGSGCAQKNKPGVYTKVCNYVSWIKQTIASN
Description: as §1

complement [3] = conditions: Y. Takada et al., Immunology 34, 509-515 (1978); cited from earlier work

SMILES	IC50 (C1s; molar concentration inhibiting 50% of ATEE hydrolysis, read-out: Anti-C1 activity, C1s id50) [nM]	inhibition at 0.1 µM (complement [1]) [%]	inhibition at 1 µM (complement [1]) [%]	inhibition at 10 µM (complement [1]) [%]	inhibition at 100 µM (complement [1]) [%]	IC50 (Thrombin) [nM]	LD50 ([2]; ip) [mg/kg]	LD50 ([2]; po) [mg/kg]	IC50 (Plasmin) [nM]	time elapsed until death (Forssman shock; 1 mg/kg i.v. 5 minutes before hemolysin, individual animals 1-4)	time elapsed until death, average (Forssman shock; 1 mg/kg i.v.) [s]	survival of individual animal (Forssman shock; 3 mg/kg i.v. 5 minutes before hemolysin, animal 2)	time elapsed until death (Forssman shock; 3 mg/kg i.v. 5 minutes before hemolysin, individual animals)	time elapsed until death, average (Forssman shock; 3 mg/kg i.v.) [s]	IC50 (C1r) [nM]	IC50 (Trypsin) [nM]	IC50 (C1s) [nM]	anti-complement activity (in words) (complement [3])
N=C(N)C=Cc1ccc(OC(=O)c2ccc(NC(=N)N)cc2)cc1 [Compound 35, 4-(β-amidinoethenyl)phenyl 4-guanidinobenzoate]	300	46	97	100	100	1000	133	1200	900	490 s and 375 s and 255 s and 285 s	351	Survival	365 s and 4000 s and 690 s	528	4000	20		
CC(=O)N[C@@H](CC(C)C)C(=O)N[C@@H](CC(C)C)C(=O)N[C@H](C=O)CCCNC(=N)N [Leupeptin, reference compound]		0	0	52	97										200000		20000	anti-complement activity
